Reference: US9815839B2, “N-(1-(substituted-phenyl)ethyl)-9H-purin-6-amines as PI3K inhibitors” (Incyte Corporation, priority 2010, dated 2017)

Columns and labels:
[1] = tested on: Pfeiffer cell line (diffuse large B cell lymphoma); assay: Pfeiffer cell proliferation assay; assay type: cell-based; conditions: Pfeiffer cells, 3-4 days plus 12 hours [3H]-thymidine incorporation
Protocol: Example C: Pfeiffer Cell Proliferation Assay
Pfeiffer cell line (diffuse large B cell lymphoma) was purchased from ATCC (Manassas, Va.) and maintained in the culture medium recommended (RPMI and 10% FBS). To measure the anti-proliferation activity of the compounds, the Pfeiffer cells were plated with the culture medium (2×10^3 cells/well/per 200 μl) into 96-well ultra-low binding plates (Corning, Corning, N.Y.), in the presence or absence of a concentration range of test compounds. After 3-4 days, [^3H]-thymidine (1 μCi/well) (PerkinElmer, Boston, Mass.) in PBS was then added to the cell culture for an additional 12 hours before the incorporated radioactivity was separated by filtration with water through GF/B filters (Packard Bioscience, Meridenj, Conn.) and measured by liquid scintillation counting with a TopCount (Packard Bioscience).

PI3Kδ (p110δ/p85α) = target: T1, PI3Kδ (p110δ/p85α) (Homo sapiens, UniProt O00329); assay: PI3Kδ scintillation proximity assay; assay type: biochemical; conditions: 20 μM ATP, 4 nM PI3Kδ
T1 construct: purchased Millipore (Bedford, Mass.)
In short: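 Radiometric SPA: product captured on WGA beads after EDTA quench and counted, IC50 fitted against log inhibitor concentration. Reactions ran 210 min at room temperature with 4 nM PI3Kδ (p110δ/p85α), 20 μM each PIP2 and ATP plus 33P-ATP, pH 6.7 MOPS buffer, 0.5% DMSO final.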

T1 sequence (O00329 whole entry, species assumed): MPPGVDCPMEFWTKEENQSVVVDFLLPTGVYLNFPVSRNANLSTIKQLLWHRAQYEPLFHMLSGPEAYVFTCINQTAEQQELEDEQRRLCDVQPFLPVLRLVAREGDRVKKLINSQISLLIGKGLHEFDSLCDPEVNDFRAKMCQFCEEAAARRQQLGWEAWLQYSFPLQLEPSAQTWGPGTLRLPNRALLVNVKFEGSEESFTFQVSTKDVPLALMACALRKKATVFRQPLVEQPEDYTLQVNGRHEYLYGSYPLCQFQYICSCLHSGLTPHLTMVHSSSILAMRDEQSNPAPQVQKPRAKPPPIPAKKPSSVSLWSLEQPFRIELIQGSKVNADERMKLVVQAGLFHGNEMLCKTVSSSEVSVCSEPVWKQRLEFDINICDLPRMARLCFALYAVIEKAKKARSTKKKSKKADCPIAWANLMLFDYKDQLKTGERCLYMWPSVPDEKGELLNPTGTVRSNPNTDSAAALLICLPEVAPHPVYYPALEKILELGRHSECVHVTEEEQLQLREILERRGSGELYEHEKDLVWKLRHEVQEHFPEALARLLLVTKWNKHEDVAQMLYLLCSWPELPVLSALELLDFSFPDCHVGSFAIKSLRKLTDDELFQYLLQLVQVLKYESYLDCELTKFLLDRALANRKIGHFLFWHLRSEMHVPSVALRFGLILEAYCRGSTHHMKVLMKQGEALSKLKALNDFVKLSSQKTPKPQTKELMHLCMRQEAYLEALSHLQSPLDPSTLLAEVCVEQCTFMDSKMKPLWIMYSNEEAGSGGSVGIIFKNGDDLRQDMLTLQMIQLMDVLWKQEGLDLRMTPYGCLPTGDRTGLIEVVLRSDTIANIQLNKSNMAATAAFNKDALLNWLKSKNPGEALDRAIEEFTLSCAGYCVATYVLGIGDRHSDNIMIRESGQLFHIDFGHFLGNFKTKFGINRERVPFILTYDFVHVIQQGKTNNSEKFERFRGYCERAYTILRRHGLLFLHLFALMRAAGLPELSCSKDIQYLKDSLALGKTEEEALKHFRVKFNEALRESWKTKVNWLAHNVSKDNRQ
T1 sequence (P27986 whole entry partner, species assumed): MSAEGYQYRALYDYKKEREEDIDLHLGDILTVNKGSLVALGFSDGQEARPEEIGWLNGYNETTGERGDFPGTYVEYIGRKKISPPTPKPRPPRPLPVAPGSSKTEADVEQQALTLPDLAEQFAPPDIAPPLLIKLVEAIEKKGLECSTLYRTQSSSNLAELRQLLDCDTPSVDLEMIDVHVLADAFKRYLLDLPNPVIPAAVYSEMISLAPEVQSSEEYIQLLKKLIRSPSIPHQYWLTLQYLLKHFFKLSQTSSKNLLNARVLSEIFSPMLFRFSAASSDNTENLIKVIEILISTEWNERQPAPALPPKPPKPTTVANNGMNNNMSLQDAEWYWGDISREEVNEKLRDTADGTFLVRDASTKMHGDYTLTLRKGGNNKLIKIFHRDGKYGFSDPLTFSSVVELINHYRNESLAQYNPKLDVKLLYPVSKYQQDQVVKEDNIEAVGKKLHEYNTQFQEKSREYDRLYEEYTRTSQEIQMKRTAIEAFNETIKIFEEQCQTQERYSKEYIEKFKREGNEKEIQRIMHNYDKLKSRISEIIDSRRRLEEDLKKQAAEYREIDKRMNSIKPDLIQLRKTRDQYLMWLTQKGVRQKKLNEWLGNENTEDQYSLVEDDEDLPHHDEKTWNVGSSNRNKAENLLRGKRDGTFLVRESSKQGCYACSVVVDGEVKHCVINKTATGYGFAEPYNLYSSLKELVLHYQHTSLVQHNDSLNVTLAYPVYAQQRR

## CCOc1ccc(-c2c(C)c(Cl)cc(C(C)Nc3ncnc4[nH]cnc34)c2OC)cc1F (stereo not drawn) [Example 39, N-[1-(5-chloro-4′-ethoxy-3′-fluoro-2-methoxy-6-methylbiphenyl-3-yl)ethyl]-9H-purin-6-amine]
[1]; Homo sapiens, Pfeiffer
  IC50: > 1000 nM
PI3Kδ (p110δ/p85α)
  IC50: 100 to 250 nM

## Cc1c(Cl)cc(C(C)Nc2ncnc3[nH]cnc23)c(-c2ccccc2)c1-c1cnc(N)nc1 (stereo not drawn) [Example 17, N-{1-[6-(2-aminopyrimidin-5-yl)-4-chloro-5-methylbiphenyl-2-yl]ethyl}-9H-purin-6-amine]
[1]; Homo sapiens, Pfeiffer
  IC50: < 100 nM
PI3Kδ (p110δ/p85α)
  IC50: < 50 nM

## COc1c(C(C)Nc2ncnc3[nH]cnc23)cc(Cl)c(C)c1-c1ccnc(F)c1 (stereo not drawn) [Example 84, N-{1-[5-chloro-3-(2-fluoropyridin-4-yl)-2-methoxy-4-methylphenyl]ethyl}-9H-purin-6-amine]
[1]; Homo sapiens, Pfeiffer
  IC50: < 100 nM
PI3Kδ (p110δ/p85α)
  IC50: < 50 nM

## COc1c(C(C)Nc2ncnc3[nH]cnc23)cc(Cl)c(Cl)c1C1CN(C2CCOC2)C1 (stereo not drawn) [Example 197, N-(1-{4,5-Dichloro-2-methoxy-3-[1-(tetrahydrofuran-3-yl)azetidin-3-yl]phenyl}ethyl)-9H-purin-6-amine bistrifluoroacetate]
[1]; Homo sapiens, Pfeiffer
  IC50: < 100 nM
PI3Kδ (p110δ/p85α)
  IC50: < 50 nM

## COc1c(C(C)Nc2ncnc3[nH]cnc23)cc(Cl)c(C)c1-c1cc(F)ccc1F (stereo not drawn) [Example 50, N-[1-(5-chloro-2′,5′-difluoro-2-methoxy-6-methylbiphenyl-3-yl)ethyl]-9H-purin-6-amine]
[1]; Homo sapiens, Pfeiffer
  IC50: > 1000 nM
[1]
  IC50: 500 to 1000 nM

## COc1c(C(C)Nc2ncnc3[nH]cnc23)cc(Cl)c(Cl)c1C1CN(CCO)C1 (stereo not drawn) [Example 196, 2-(3-{2,3-Dichloro-6-methoxy-5-[1-(9H-purin-6-ylamino)ethyl]phenyl}azetidin-1-yl)ethanol bis(trifluoroacetate)]
[1]; Homo sapiens, Pfeiffer
  IC50: < 100 nM
PI3Kδ (p110δ/p85α)
  IC50: < 50 nM

## COc1c(C(C)Nc2ncnc3[nH]cnc23)cc(Cl)c(C)c1-c1ccc(C#N)cc1 (stereo not drawn) [Example 30, 3′-chloro-6′-methoxy-2′-methyl-5′[1-(9H-purin-6-ylamino)ethyl]biphenyl-4-carbonitrile]
[1]; Homo sapiens, Pfeiffer
  IC50: 100 to 500 nM
PI3Kδ (p110δ/p85α)
  IC50: < 50 nM

## COc1c(C(C)Nc2ncnc3[nH]cnc23)cc(Cl)c(Cl)c1C1CN(C(C)=O)C1 (stereo not drawn) [Example 195, N-{1-[3-(1-Acetylazetidin-3-yl)-4,5-dichloro-2-methoxyphenyl]ethyl}-9H-purin-6-amine]
[1]; Homo sapiens, Pfeiffer
  IC50: < 100 nM
PI3Kδ (p110δ/p85α)
  IC50: < 50 nM

## COc1c(C(C)Nc2ncnc3[nH]cnc23)cc(Cl)c(C)c1-c1ccnn1C (stereo not drawn) [Example 21, N-{1-[5-chloro-2-methoxy-4-methyl-3-(1-methyl-1H-pyrazol-5-yl)phenyl]ethyl}-9H-purin-6-amine]
[1]; Homo sapiens, Pfeiffer
  IC50: < 100 nM
PI3Kδ (p110δ/p85α)
  IC50: < 50 nM

## COCc1ccc(-c2c(C)c(Cl)cc(C(C)Nc3ncnc4[nH]cnc34)c2OC)cc1 (stereo not drawn) [Example 42, N-{1-[5-chloro-2-methoxy-4′-(methoxymethyl)-6-methylbiphenyl-3-yl]ethyl}-9H-purin-6-amine]
[1]; Homo sapiens, Pfeiffer
  IC50: 100 to 500 nM
PI3Kδ (p110δ/p85α)
  IC50: < 50 nM

## COCCN1CC(c2c(Cl)c(Cl)cc(C(C)Nc3ncnc4[nH]cnc34)c2OC)C1 (stereo not drawn) [Example 200, N-(1-{4,5-Dichloro-2-methoxy-3-[1-(2-methoxyethyl)azetidin-3-yl]phenyl}ethyl)-9H-purin-6-amine]
[1]; Homo sapiens, Pfeiffer
  IC50: < 100 nM
PI3Kδ (p110δ/p85α)
  IC50: < 50 nM

## COc1c(C(C)Nc2ncnc3[nH]cnc23)cc(Cl)c(C)c1-c1cccc(C(=O)N(C)C)n1 (stereo not drawn) [Example 177, 6-{3-chloro-6-methoxy-2-methyl-5-[1-(9H-purin-6-ylamino)ethyl]phenyl}-N,N-dimethylpyridine-2-carboxamide bis(2,2,2-trifluoroacetate)]
[1]; Homo sapiens, Pfeiffer
  IC50: < 100 nM
PI3Kδ (p110δ/p85α)
  IC50: < 50 nM

## COc1c(C(C)Nc2ncnc3[nH]cnc23)cc(Cl)c(C)c1-c1ccc(F)nc1 (stereo not drawn) [Example 51, N-{1-[5-chloro-3-(6-fluoropyridin-3-yl)-2-methoxy-4-methylphenyl]ethyl}-9H-purin-6-amine]
[1]; Homo sapiens, Pfeiffer
  IC50: < 100 nM
PI3Kδ (p110δ/p85α)
  IC50: < 50 nM

## COc1ncc(-c2c(C)c(Cl)cc(C(C)Nc3ncnc4[nH]cnc34)c2-c2ccccc2)cn1 (stereo not drawn) [Example 25, N-{1-[4-chloro-6-(2-methoxypyrimidin-5-yl)-5-methylbiphenyl-2-yl]ethyl}-9H-purin-6-amine]
[1]; Homo sapiens, Pfeiffer
  IC50: < 100 nM
PI3Kδ (p110δ/p85α)
  IC50: < 50 nM

## COc1c(C(C)Nc2ncnc3[nH]cnc23)cc(Cl)c(Cl)c1C1CN(CCC(F)(F)F)C1 (stereo not drawn) [Example 205, N-(1-{4,5-Dichloro-2-methoxy-3-[1-(3,3,3-trifluoropropyl)azetidin-3-yl]phenyl}ethyl)-9H-purin-6-amine]
[1]; Homo sapiens, Pfeiffer
  IC50: < 100 nM
PI3Kδ (p110δ/p85α)
  IC50: < 50 nM

## COc1c(C(C)Nc2ncnc3[nH]cnc23)cc(Cl)c(C)c1N1CCCC1=O (stereo not drawn) [Example 18, 1-{3-Chloro-6-methoxy-2-methyl-5-[1-(9H-purin-6-ylamino)ethyl]phenyl}pyrrolidin-2-one]
[1]; Homo sapiens, Pfeiffer
  IC50: 100 to 500 nM
PI3Kδ (p110δ/p85α)
  IC50: 250 to 500 nM

## Cc1c(Cl)cc(C(C)Nc2ncnc3[nH]cnc23)c(-c2cccc(F)c2)c1-c1cnn(C)c1 (stereo not drawn) [Example 73, N-{1-[4-chloro-3′-fluoro-5-methyl-6-(1-methyl-1H-pyrazol-4-yl)biphenyl-2-yl]ethyl}-9H-purin-6-amine]
[1]; Homo sapiens, Pfeiffer
  IC50: < 100 nM

## COc1c(C(C)Nc2ncnc3[nH]cnc23)cc(Cl)c(Cl)c1C1CN(C(C)CO)C1 (stereo not drawn) [Example 208, 2-(3-{2,3-Dichloro-6-methoxy-5-[1-(9H-purin-6-ylamino)ethyl]phenyl}azetidin-l-yl)propan-1-ol bistrifluoroacetate]
[1]; Homo sapiens, Pfeiffer
  IC50: < 100 nM
PI3Kδ (p110δ/p85α)
  IC50: < 50 nM

## COc1c(C(C)Nc2ncnc3[nH]cnc23)cc(Cl)c(C)c1-c1ccc(NC(C)=O)nc1 (stereo not drawn) [Example 112, N-(5-{3-chloro-6-methoxy-2-methyl-5-[1-(9H-purin-6-ylamino)ethyl]phenyl}-pyridin-2-yl)acetamide]
[1]; Homo sapiens, Pfeiffer
  IC50: < 100 nM
PI3Kδ (p110δ/p85α)
  IC50: < 50 nM

## COc1c(C(C)Nc2ncnc3[nH]cnc23)cc(Cl)c(C)c1-c1ccc(S(C)(=O)=O)cc1 (stereo not drawn) [Example 32, N-{1-[5-chloro-2-methoxy-6-methyl-4′-(methylsulfonyl)biphenyl-3-yl]ethyl}-9H-purin-6-amine]
[1]; Homo sapiens, Pfeiffer
  IC50: < 100 nM

## COC(=O)N(C(=O)OC)c1c(C)c(Cl)cc(C(C)Nc2ncnc3[nH]cnc23)c1-c1cccc(F)c1 (stereo not drawn) [Example 10, Dimethyl {4-chloro-3′-fluoro-3-methyl-6-[1-(9H-purin-6-ylamino)ethyl]biphenyl-2-yl}imidodicarbonate]
[1]; Homo sapiens, Pfeiffer
  IC50: 100 to 500 nM
PI3Kδ (p110δ/p85α)
  IC50: < 50 nM

## Cc1c(Cl)cc(C(C)Nc2ncnc3[nH]cnc23)c(-c2cccc(F)c2)c1N(S(C)(=O)=O)S(C)(=O)=O (stereo not drawn) [Example 12, N-{4-chloro-3′-fluoro-3-methyl-6-[1-(9H-purin-6-ylamino)ethyl]biphenyl-2-yl}-N-(methylsulfonyl)methanesulfonamide]
[1]; Homo sapiens, Pfeiffer
  IC50: < 100 nM
PI3Kδ (p110δ/p85α)
  IC50: < 50 nM

## Cc1noc(C)c1-c1c(C)c(Cl)cc(C(C)Nc2ncnc3[nH]cnc23)c1-c1cc(F)cc(F)c1 (stereo not drawn) [Example 77, N-{1-[4-chloro-6-(3,5-dimethylisoxazol-4-yl)-3′,5′-difluoro-5-methylbiphenyl-2-yl]ethyl}-9H-purin-6-amine]
[1]; Homo sapiens, Pfeiffer
  IC50: < 100 nM
PI3Kδ (p110δ/p85α)
  IC50: < 50 nM

## Cc1c(Cl)cc(C(C)Nc2ncnc3[nH]cnc23)c(-c2cccc(F)c2)c1C#N (stereo not drawn) [Example 1, 4-Chloro-3′-fluoro-3-methyl-6-[1-(9H-purin-6-ylamino)ethyl]biphenyl-2-carbonitrile]
[1]; Homo sapiens, Pfeiffer
  IC50: 500 to 1000 nM

## COc1c(C(C)Nc2ncnc3[nH]cnc23)cc(Cl)c(C)c1-c1cccc(F)c1 (stereo not drawn) [Example 28, N-[1-(5-chloro-3′-fluoro-2-methoxy-6-methylbiphenyl-3-yl)ethyl]-9H-purin-6-amine]
[1]; Homo sapiens, Pfeiffer
  IC50: 100 to 500 nM
PI3Kδ (p110δ/p85α)
  IC50: < 50 nM

## COc1c(C(C)Nc2ncnc3[nH]cnc23)cc(Cl)c(C)c1-c1ccc(-n2cccn2)cc1 (stereo not drawn) [Example 43, N-{1-[5-chloro-2-methoxy-6-methyl-4′-(1H-pyrazol-1-yl)biphenyl-3-yl]ethyl}-9H-purin-6-amine]
[1]; Homo sapiens, Pfeiffer
  IC50: 100 to 500 nM
PI3Kδ (p110δ/p85α)
  IC50: < 50 nM

## COc1c(C(C)Nc2ncnc3[nH]cnc23)cc(Cl)c(C)c1-c1cc(C(F)(F)F)ccc1F (stereo not drawn) [Example 86, N-{1-[5-chloro-2′-fluoro-2-methoxy-6-methyl-5′-(trifluoromethyl)biphenyl-3-yl]ethyl]-9H-purin-6-ami]
[1]; Homo sapiens, Pfeiffer
  IC50: > 1000 nM

## COc1c(C(C)Nc2ncnc3[nH]cnc23)cc(Cl)c(C)c1-c1cnc(N)nc1 (stereo not drawn) [Example 33, N-{1-[3-(2-aminopyrimidin-5-yl)-5-chloro-2-methoxy-4-methylphenyl]ethyl}-9H-purin-6-amine]
[1]; Homo sapiens, Pfeiffer
  IC50: < 100 nM

## COc1c(C(C)Nc2ncnc3[nH]cnc23)cc(Cl)c(C)c1-c1cncc(C#N)c1 (stereo not drawn) [Example 53, 5-{3-chloro-6-methoxy-2-methyl-5-[1-(9H-purin-6-ylamino)ethyl]phenyl}nicotinonitrile]
[1]; Homo sapiens, Pfeiffer
  IC50: < 100 nM

## COc1c(C(C)Nc2ncnc3[nH]cnc23)cc(Cl)c(C)c1-c1ccc(CO)nc1 (stereo not drawn) [Example 183, (5-{3-chloro-6-methoxy-2-methyl-5-[1-(9H-purin-6-ylamino)ethyl]phenyl}pyridin-2-yl)methanol bis(2,2,2-trifluoroacetate)]
PI3Kδ (p110δ/p85α)
  IC50: < 50 nM

## COc1c(-c2cnc(N)nc2)cc(Cl)cc1C(C)Nc1ncnc2[nH]cnc12 (stereo not drawn) [Example 143, N-{1-[3-(2-amino-pyrimidin-5-yl)-5-chloro-2-methoxyphenyl]-ethyl}-9H-purin-6-amine]
PI3Kδ (p110δ/p85α)
  IC50: 100 to 250 nM
